Measurements: paper PMC11492916 (OncoTargets and Therapy, 2024)
Where “and” joins values, the source holds several entries; their conditions need not be identical. Identical values can stand only once.

What was measured:
T47D = test: MTT cytotoxicity assay, T47D breast cancer cells; assay type: cell-based; settings: Homo sapiens, 48 h, read-out: IC50, cytotoxic activity against T47D
HeLa = test: MTT cytotoxicity assay, HeLa cervical cancer cells; assay type: cell-based; settings: Homo sapiens, 48 h, read-out: IC50, cytotoxic activity against HeLa

COc1cccc2c1C(=O)c1c(O)c3c(c(O)c1C2=O)C[C@@](O)(C(=O)CO)C[C@@H]3O[C@H]1C[C@H](N)[C@H](O)[C@H](C)O1 [DOX, doxorubicin]
IC50 (T47D): 0.17 µg/mL and 310 nM
IC50 (HeLa): 3.38 µg/mL and 6.22 µM
